Where two headings read alike, the source gives them in different places.
How the values were obtained:
T-cell [1] = assay: CD25 cell surface staining on T-cells stimulated with anti-CD3 antibody alone (Biological Example 2); format: cell-based, human; settings: T-cell, fold change over baseline, primary human total T-cells, read-out: CD25 staining Anti-CD3 stimulation; for fold induction at 1 µM: 1 μM Cbl-b inhibitor; for fold induction at 8 µM: 8 μM Cbl-b inhibitor
Cbl-b = Cbl-b (Homo sapiens, UniProt Q13191); assay: Cbl-b activity assay (Cbl-b inhibition assay), TR-FRET of Cbl-b interaction with UbcH5B-Ub; format: biochemical
How it was run: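 UbcH5B (C85K) conjugated to N-terminally Bodipy-Fluorescein-labeled ubiquitin served as the fluorescent partner. After compound preincubation, Src kinase (60 nM) with 1 mM ATP and 5 mM MgCl2 (final) was added for 1.5 h, followed by a further 1 h incubation. Some values were obtained with 50 mM NaCl and 30 nM Src.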

T-cell [2] = assay: IL-2 secretion from T-cells co-stimulated with anti-CD3 and anti-CD28 antibody (Biological Example 2); format: cell-based, human; settings: Homo sapiens, T-cell, fold change over baseline, primary human total T-cells, read-out: IL-2 secretion Anti-CD3/Anti-CD28 stimulation; for fold induction at 0.3 µM: 0.3 μM Cbl-b inhibitor; for fold induction at 1 µM: 1 μM Cbl-b inhibitor; for fold induction at 4 µM: 4 μM Cbl-b inhibitor
How it was run: (§1)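 T-cells were stimulated with anti-CD3 antibody alone or with anti-CD28 antibody, in the presence or absence of Cbl-b inhibitor. IL-2 secretion or CD25 surface staining was measured, and values expressed as fold over the uninhibited baseline […].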

T-cell [3] = assay: CD25 cell surface staining on T-cells co-stimulated with anti-CD3 and anti-CD28 antibody (Biological Example 2); format: cell-based, human; settings: Homo sapiens, T-cell, fold change over baseline, primary human total T-cells, read-out: CD25 staining Anti-CD3/Anti-CD28 stimulation; for fold induction at 0.3 µM: 0.3 μM Cbl-b inhibitor; for fold induction at 1 µM: 1 μM Cbl-b inhibitor; for fold induction at 4 µM: 4 μM Cbl-b inhibitor
How it was run: as §1

[4] = assay buffer with 100 mM NaCl, 60 nM Src kinase, read-out: Cbl-b activity IC50

Chain of Cbl-b (Q13191 36-427): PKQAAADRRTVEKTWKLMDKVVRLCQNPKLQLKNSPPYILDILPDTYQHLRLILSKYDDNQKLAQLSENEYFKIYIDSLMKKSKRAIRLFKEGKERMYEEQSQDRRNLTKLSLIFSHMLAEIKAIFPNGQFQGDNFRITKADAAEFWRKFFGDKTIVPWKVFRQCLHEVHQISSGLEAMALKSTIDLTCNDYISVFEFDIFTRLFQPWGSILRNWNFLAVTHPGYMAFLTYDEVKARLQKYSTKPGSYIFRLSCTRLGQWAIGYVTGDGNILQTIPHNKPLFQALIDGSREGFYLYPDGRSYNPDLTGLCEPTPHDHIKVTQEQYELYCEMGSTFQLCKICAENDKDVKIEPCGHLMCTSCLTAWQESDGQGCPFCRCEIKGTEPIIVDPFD

Compound	fold induction at 1 µM (T-cell [1])	fold induction at 8 µM (T-cell [1])	IC50 (Cbl-b; [4]) [µM]	fold induction at 0.3 µM (T-cell [2])	fold induction at 1 µM (T-cell [2])	fold induction at 4 µM (T-cell [2])	fold induction at 0.3 µM (T-cell [3])	fold induction at 1 µM (T-cell [3])	fold induction at 4 µM (T-cell [3])	IC50 (Cbl-b; * assay buffer containing 50 mM NaCl instead of 100 mM NaCl and 30 nM Src kinase instead of 60 nM, read-out: Cbl-b activity IC50 (μM)*) [µM]
Cn1cnnc1[C@@H]1CC[C@@H]1c1cccc(N2Cc3c(cccc3C(F)(F)F)C2=O)c1 [Compound 283b, 2-(3-((1S,2R)-2-(4-methyl-4H-1,2,4-triazol-3-yl)cyclobutyl)phenyl)-4-(trifluoromethyl)isoindolin-1-one]	0.601 to 0.8	0.801 to 1	0.301 to 1	5 to 7.5	> 7.5	> 7.5	1.01 to 1.3	1.01 to 1.3	1.01 to 1.3	
C[C@H](Cc1nncn1C)c1cccc(NC(=O)c2cc(S(N)(=O)=O)cc(C(F)(F)F)n2)c1 [Compound 200, (R)-N-(3-(1-(4-methyl-4H-1,2,4-triazol-3-yl)propan-2-yl)phenyl)-4-sulfamoyl-6-(trifluoromethyl)picolinamide]	0.801 to 1	> 1	0.1 to 0.3	< 1	< 1	1.01 to 2.5	1.01 to 1.3	1.01 to 1.3	1.01 to 1.3	
C[C@H](Sc1nncn1C)c1cccc(NC(=O)c2ccnc(C(F)(F)F)n2)c1 [Compound 75, N-[3-[(1S)-1-[(4-methyl-1,2,4-triazol-3-yl)sulfanyl]ethyl]phenyl]-2-(trifluoromethyl)pyrimidine-4-carboxamide]	0.601 to 0.8	0.801 to 1	0.301 to 1	1.01 to 2.5	1.01 to 2.5	1.01 to 2.5	1.01 to 1.3	1.01 to 1.3	1.01 to 1.3	
CC(C)c1cccc(C(=O)Nc2cccc([C@H](C)Sc3nncn3C)c2)n1 [Compound 33, (S)-6-Isopropyl-N-(3-(1-((4-methyl-4H-1,2,4-triazol-3-yl)thio)ethyl)phenyl)picolinamide]	< 0.6	0.801 to 1	0.1 to 0.3	2.51 to 5	2.51 to 5	> 7.5	1.01 to 1.3	1.01 to 1.3	1.01 to 1.3	0.301 to 1
C[C@H](Sc1nncn1C)c1ccnc(NC(=O)c2cc(Cl)cc(C(F)(F)F)n2)c1 [Compound 105, (S)-4-chloro-N-(4-(1-((4-methyl-4H-1,2,4-triazol-3-yl)thio)ethyl)pyridin-2-yl)-6-(trifluoromethyl)picolinamide]	< 0.6	0.601 to 0.8	0.301 to 1	1.01 to 2.5	1.01 to 2.5	< 1	1.01 to 1.3	1.01 to 1.3	< 1	
C[C@H](Sc1nncn1C)c1cccc(NC(=O)c2cc(C(=O)N3C[C@H](O)C[C@@H]3C)ccn2)c1 [Compound 151, 4-((2S,4R)-4-hydroxy-2-methylpyrrolidine-1-carbonyl)-N-(3-((S)-1-((4-methyl-4H-1,2,4-triazol-3-yl)thio)ethyl)phenyl)picolinamide]	< 0.6	0.601 to 0.8	0.301 to 1	> 7.5	> 7.5	> 7.5	1.01 to 1.3	1.01 to 1.3	1.01 to 1.3	
Cc1ccc(C(=O)Nc2cc([C@H](C)Sc3nncn3C)ccn2)nc1C1CC1 [Compound 113, (S)-6-cyclopropyl-5-methyl-N-(4-(1-((4-methyl-4H-1,2,4-triazol-3-yl)thio)ethyl)pyridin-2-yl)picolinamide]	< 0.6	< 0.6	0.301 to 1	2.51 to 5	2.51 to 5	5 to 7.5	< 1	< 1	1.01 to 1.3	
C[C@H](Cc1nncn1C)c1cccc(N2Cc3c(Br)cccc3C2=O)c1 [Compound 256, (R)-4-bromo-2-(3-(1-(4-methyl-4H-1,2,4-triazol-3-yl)propan-2-yl)phenyl)isoindolin-1-one]	0.801 to 1	0.801 to 1	0.1 to 0.3	2.51 to 5	5 to 7.5	> 7.5	1.01 to 1.3	1.31 to 1.5	1.51 to 1.75	
Cc1cccc2nc(C(=O)Nc3cccc([C@H](C)Sc4nncn4C)c3)ccc12 [Compound 48, 5-Methyl-N-[3-[(1S)-1-[(4-methyl-4H-1,2,4-triazol-3-yl)sulfanyl]ethyl]phenyl]quinoline-2-carboxamide]	0.801 to 1	0.801 to 1	0.301 to 1	2.51 to 5	5 to 7.5	> 7.5	1.01 to 1.3	1.01 to 1.3	1.01 to 1.3	
C[C@H](Cc1nncn1C)c1cccc(NC(=O)c2cc(C(C)(C)O)c(Cl)cn2)c1 [Compound 186, (R)-5-chloro-4-(2-hydroxypropan-2-yl)-N-(3-(1-(4-methyl-4H-1,2,4-triazol-3-yl)propan-2-yl)phenyl)picolinamide]	< 0.6	< 0.6	0.301 to 1	2.51 to 5	1.01 to 2.5	5 to 7.5	1.01 to 1.3	1.31 to 1.5	> 1.76	
C[C@H](Sc1nncn1C)c1cccc(NC(=O)c2cccc(C(C)(F)F)n2)c1 [Compound 81, (S)-6-(1,1-difluoroethyl)-N-(3-(1-((4-methyl-4H-1,2,4-triazol-3-yl)thio)ethyl)phenyl)picolinamide]	0.801 to 1	> 1	0.1 to 0.3	< 1	< 1	2.51 to 5	1.01 to 1.3	1.51 to 1.75	> 1.76	
Cn1cnnc1C[C@](C)(F)c1cccc(N2Cc3c(cccc3C(F)(F)F)C2=O)c1 [Compound 298b, (S)-2-(3-(2-fluoro-1-(4-methyl-4H-1,2,4-triazol-3-yl)propan-2-yl)phenyl)-4-(trifluoromethyl)isoindolin-1-one]	0.601 to 0.8	0.801 to 1	0.1 to 0.3	1.01 to 2.5	1.01 to 2.5	1.01 to 2.5	1.01 to 1.3	< 1	1.01 to 1.3	
C[C@H](Cc1nncn1C)c1cccc(NC(=O)c2cccc(S(C)(=O)=O)n2)c1 [Compound 185, (R)-N-(3-(1-(4-methyl-4H-1,2,4-triazol-3-yl)propan-2-yl)phenyl)-6-(methylsulfonyl)picolinamide]	< 0.6	< 0.6	0.301 to 1	1.01 to 2.5	1.01 to 2.5	2.51 to 5	1.01 to 1.3	> 1.76	> 1.76	
C[C@H](Sc1nncn1C)c1ccnc(NC(=O)c2cc(C3CC3)cc(C(F)(F)F)n2)c1 [Compound 104, (S)-4-cyclopropyl-N-(4-(1-((4-methyl-4H-1,2,4-triazol-3-yl)thio)ethyl)pyridin-2-yl)-6-(trifluoromethyl)picolinamide]	0.601 to 0.8	0.801 to 1	0.301 to 1	1.01 to 2.5	1.01 to 2.5	1.01 to 2.5	< 1	< 1	1.01 to 1.3	
C[C@H](Sc1nncn1C)c1cccc(N2Cc3c(ccnc3Cl)C2=O)c1 [Compound 167, 4-chloro-2-[3-[(1S)-1-[(4-methyl-1,2,4-triazol-3-yl)sulfanyl]ethyl]phenyl]-3H-pyrrolo[3,4-c]pyridin-1-one]	< 0.6	0.601 to 0.8	0.301 to 1	1.01 to 2.5	< 1	2.51 to 5	1.51 to 1.75	1.01 to 1.3	> 1.76	

From patent publication US20220324835A1 (Nurix Therapeutics, Inc., priority 2018, published 2022)
